Results on 10 compounds are retold here after US20240342292A1, “Compounds for the Degradation of EGFR Kinase” (BeiGene Switzerland GmbH, priority 2021, published 2024).

The structures appear in SMILES notation.

In one experiment the target is T1, L858R/T790M/C797S EGFR (Homo sapiens, UniProt P00533, C797S/L858R/T790M).
T1 construct: expressed in transfected cells; host or cells: H1975 clone #25 (lentiviral over-expression, endogenous EGFR knocked out by sgRNA)
The experiment is described as follows: EGFR degradation HTRF assay in H1975-clone #25 (LTC) cells. To be noted: 16h treatment; for DC50: H1975 # 25-LTC (L858R/T790M/C797S), HTRF; for Dmax: NCI-H1975, H1975 # 25-LTC (L858R/T790M/C797S), maximum percentage of degradation. The experiment is classed as cell-based. The text has this: (§1) H1975-clone #28(Del19/T790M/C797S, or abbr: DTC), H1975-clone #23(Del19/C797S, or abbr: DC), H1975-clone #25(L858R/T790M/C797S, or abbr: LTC) and H1975-clone #8 (L858R/C797S, or abbr: LC). EGFR-Del19:T790M/C797S, EGFR-Del19/C797S, EGFR-L858R/T790M/C797S and EGFR-L858R/C797S were stably expressed in H1975 cell lines by lentivirus-mediated over-expression, respectively. The EGFR over-expressed cells then underwent knockout, in which the EGFR targeting sgRNA was designed to only target the endogenous EGFR copies and preserve the exogenous EGFR copies. Followed by the knockout, the edited H1975 cells were seeded in 96 well plates at the concentration of […], cultured for about 2 weeks to allow single clones formation. The formed clones were screened by DNA sequencing and whole exon sequencing analysis for the desired edition. H1975-clone #28, H1975-clone #23, H1975-clone #25 and H1975-clone #8 were finally confirmed as homozygous Del19/T790M/C797S EGFR, Dell9/C797S EGFR, L858R/T790M/C797S EGFR and L858R/C797S EGFR clones, respectively.
(§2) H1975-#25, H1975-#28, H1975-#23 and H1975-#8 cells are treated with compounds diluted in 0.2% DMSO cell culture medium on day 2, incubate for 16h, 37° C., 5% CO2. the final concentration of compounds in all assay is start with 10 uM, 5-fold dilution, total 8 doses were included.
(§3) After 16h treatment, add HTRF lysis buffer to each well; seal the plate and incubate 1 hour at room temperature on a plate shaker; Once the cells are lysed, 16 μL of cell lysate are transferred to a PE 384-well HTRF detection plate; 4 μL of pre-mixed HTRF antibodies are added to each well; Cover the plate with a plate sealer, spin 1000 rpm for 1 min, Incubate overnight at room temperature; Read on BMG PheraStar with HTRF protocol (337 nm-665 nm-620 nm).
(§4) The IC50 (DC50) value of a compound can be obtained by fitting the following equation
(§5) Y=Bottom+(TOP−Bottom)/(1+((IC50/X)^hillslope))
(§6) Wherein, X and Y are known values, and IC50, Hillslope, Top and Bottom are the parameters obtained by fitting with software. Y is the inhibition percentage (calculated from the equation), X is the concentration of the compound: IC50 is the concentration of the compound when the 50% inhibition is reached. The smaller the IC50 value is, the stronger the inhibitory ability of the compound is. Vice versa, the higher the IC50 value is, the weaker the ability the inhibitory ability of the compound is: Hillslope represents the slope of the fitted curve, generally around 1*; Bottom represents the minimum value of the curve obtained by data fitting, which is generally 0%±20%; Top represents the maximum value of the curve obtained by data fitting, which is generally 100%±20%. The experimental data were fitted by calculating and analyzing with Dotmatics data analysis software.
(In general: In TR-FRET formats the signal depends on donor and acceptor labels being close together.)

The next experiment relates to Del19/T790M/C797S EGFR. The experiment is described as follows: EGFR degradation HTRF assay in H1975-clone #28 (DTC) cells. To be noted: H1975 # 28 DTC (Del19/T790M/C797S), 16h treatment; for DC50: HTRF; for Dmax (%): maximum percentage of degradation. The experiment is classed as cell-based.
From the text: as §1, §2, §3, §4, §5, §6

T1 sequence (P00533 25-1210 T790M/C797S/L858R): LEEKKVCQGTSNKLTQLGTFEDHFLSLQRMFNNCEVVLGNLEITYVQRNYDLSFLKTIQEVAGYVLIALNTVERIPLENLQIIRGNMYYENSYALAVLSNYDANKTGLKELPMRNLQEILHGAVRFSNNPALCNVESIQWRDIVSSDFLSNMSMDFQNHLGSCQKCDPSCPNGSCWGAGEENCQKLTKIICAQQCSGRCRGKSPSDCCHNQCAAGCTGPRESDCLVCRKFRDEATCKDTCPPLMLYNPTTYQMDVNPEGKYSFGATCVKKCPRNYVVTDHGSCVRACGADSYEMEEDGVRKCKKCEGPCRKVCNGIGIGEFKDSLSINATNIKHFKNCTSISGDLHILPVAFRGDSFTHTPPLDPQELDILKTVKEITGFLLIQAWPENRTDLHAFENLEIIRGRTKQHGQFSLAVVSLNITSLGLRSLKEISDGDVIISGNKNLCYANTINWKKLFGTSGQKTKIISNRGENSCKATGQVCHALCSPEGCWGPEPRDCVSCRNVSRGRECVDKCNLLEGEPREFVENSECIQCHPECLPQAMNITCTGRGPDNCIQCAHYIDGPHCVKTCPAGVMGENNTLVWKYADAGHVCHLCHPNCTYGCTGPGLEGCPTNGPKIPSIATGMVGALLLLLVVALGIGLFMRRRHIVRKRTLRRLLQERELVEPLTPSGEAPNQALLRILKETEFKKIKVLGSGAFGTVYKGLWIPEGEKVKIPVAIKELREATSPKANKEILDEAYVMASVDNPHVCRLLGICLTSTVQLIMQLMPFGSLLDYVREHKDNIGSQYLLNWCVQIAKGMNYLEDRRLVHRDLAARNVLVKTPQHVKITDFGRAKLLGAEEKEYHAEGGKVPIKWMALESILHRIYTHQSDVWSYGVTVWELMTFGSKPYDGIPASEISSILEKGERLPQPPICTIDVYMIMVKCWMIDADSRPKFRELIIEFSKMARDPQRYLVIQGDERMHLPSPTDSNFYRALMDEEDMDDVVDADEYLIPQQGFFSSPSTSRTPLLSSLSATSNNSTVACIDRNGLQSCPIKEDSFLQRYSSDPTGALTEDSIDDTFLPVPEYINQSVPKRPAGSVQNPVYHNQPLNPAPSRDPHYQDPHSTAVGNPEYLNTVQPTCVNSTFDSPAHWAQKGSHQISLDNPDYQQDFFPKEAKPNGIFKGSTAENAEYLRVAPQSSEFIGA

On L858R/T790M/C797S EGFR, `Cc1cc2cc(n1)-c1cnn(C)c1OCCC[C@@H](C)CN1/C(=N/C2=O)Nc2ccc(N3CCN(C4CCN(c5cc(F)c([C@H]6CCC(=O)NC6=O)c(F)c5)CC4)[C@H](C)C3)cc21` [Example 388, (R)-3-(2,6-difluoro-4-(4-((R)-2-methyl-4-((R,E)-1^1,2^6,7-trimethyl-3-oxo-5^2,5^3-dihydro-1^1H,5^1H-11-oxa-4-aza-5(2,1)-benzo[d]imidazola-2(2,4)-pyridina-1(4,5)-pyrazolacycloundecaphane-5^6-yl)piperazin-1-yl)piperidin-yl)phenyl)piperidine-2,6-dione] showed a DC50 of 1.11 nM and a Dmax of 86.5%. In the experiment with Del19/T790M/C797S EGFR, half-maximal degradation (DC50) was put at 0.776 nM and the “Dmax (%)” value was 80.94%.
As to `Cc1cc2cc(n1)-c1cnn(C)c1OCCC[C@@H](C)CN1/C(=N/C2=O)Nc2ccc(CN3CCN(CC4CN(c5cc(F)c([C@H]6CCC(=O)NC6=O)c(F)c5)C4)CC3)cc21` [Example 150, (R)-3-(2,6-difluoro-4-(3-((4-(((R,E)-1^1,2^6,7-trimethyl-3-oxo-5^2,5^1-dihydro-1^1H,5^1H-11-oxa-4-aza-5(2,1)-benzo[d]imidazola-2(2,4)-pyridina-(4,5)-pyrazolacycloundecaphane-5^6-yl)methyl)piperazin-1-yl)methyl)azetidin-1-yl)phenyl)piperidine-2,6-dione], at L858R/T790M/C797S EGFR, half-maximal degradation (DC50) was put at 0.705 nM and the Dmax worked out at 87.9%. Moreover, in the experiment with Del19/T790M/C797S EGFR, the DC50 was found to be 2.17 nM and the “Dmax (%)” value stood at 79.66%.
Consider `Cc1cc2cc(n1)-c1cnn(C)c1OCCC[C@@H](C)CN1/C(=N/C2=O)Nc2ccc(CN3CC4CCC(C3)N4C(=O)[C@@H]3CCN(c4cc(F)c([C@H]5CCC(=O)NC5=O)c(F)c4)C3)cc21` [Example 83, (3R)-3-(2,6-difluoro-4-((3R)-3-(3-(((R,E)-1^1,2^6,7-trimethyl-3-oxo-5^2,5^3-dihydro-1^1H,5^1H-11-oxa-4-aza-5(2,1)-benzo[d]imidazola-2(2,4)-pyridina-1(4,5)-pyrazolacycloundecaphane-5^6-yl)methyl)-3,8-diazabicyclo[3.2.1]octane-8-carbonyl)pyrrolidin-1-yl)phenyl)piperidine-2,6-dione], for which, at L858R/T790M/C797S EGFR, it took 2 nM to reach half-maximal degradation (DC50) and the Dmax turned out to be 82.5%. Further, in the experiment on Del19/T790M/C797S EGFR, it took 2 nM to reach half-maximal degradation (DC50) and the “Dmax (%)” value was 73.0%.
On L858R/T790M/C797S EGFR, `Cc1cc2cc(n1)-c1cnn(C)c1OCCC[C@@H](C)CN1/C(=N/C2=O)Nc2ccc(C(=O)N(C)C3CCN(CC4CCN(c5cc(F)c([C@H]6CCC(=O)NC6=O)c(F)c5)CC4)CC3)cc21` [Example 287, (R,E)-N-(1-((1-(4-((R)-2,6-dioxopiperidin-3-yl)-3,5-difluorophenyl)piperidin-4-yl)methyl)piperidin-4-yl)-N,1^1,2^6,7-tetramethyl-3-oxo-5^2,5^3-dihydro-1^1H,5^1H-11-oxa-4-aza-5(2,1)-benzo[d]imidazola-2(2.4)-pyridina-1(4,5)-pyrazolacycloundecaphane-5^6-carboxamide] registered a DC50 of 0.581 nM and a Dmax of 93.5%. For the same compound, in the experiment with Del19/T790M/C797S EGFR, the DC50 was 0.918 nM and the “Dmax (%)” value amounted to 88.53%.
Turning to `Cc1cc2cc(n1)-c1cnn(C)c1OCCC[C@@H](C)CN1/C(=N/C2=O)Nc2ccc(CN3CCN(C[C@H]4CCN(c5cc(F)c([C@H]6CCC(=O)NC6=O)c(F)c5)C4)CC3)cc21` [Example 90, (R)-3-(2,6-difluoro-4-((R)-3-((4-(((R,E)-1^1,2^6,7-trimethyl-3-oxo-5^2,5^3-dihydro-^1H,5^1H-11-oxa-4-aza-5(2,1)-benzo[d]imidazola-2(2,4)-pyridina-1(4,5)-pyrazolacycloundecaphane-5^6-yl)methyl)piperazin-1-yl)methyl)pyrrolidin-1-yl)phenyl)piperidine-2,6-dione], on L858R/T790M/C797S EGFR, the DC50 came to 1.1 nM and the Dmax worked out at 86.9%.
At L858R/T790M/C797S EGFR, `Cc1cc2cc(n1)-c1cnn(C)c1OCCC[C@@H](C)CN1/C(=N/C2=O)Nc2ccc(CN3CCN(C[C@@H]4CCN(c5cc(F)c([C@H]6CCC(=O)NC6=O)c(F)c5)C4)CC3)cc21` [Example 88, (R)-3-(2,6-difluoro-4-((S)-3-((4-(((R,E)-1^1,2^6,7-trimethyl-3-oxo-5^2,5^3-dihydro-1^1H,5^1H-1l-oxa-4-aza-5(2,1)-benzo[d]imidazola-2(2,4)-pyridina-1(4,5)-pyrazolacycloundecaphane-5^6-yl)methyl)piperazin-1-yl)methyl)pyrrolidin-1-yl)phenyl)piperidine-2,6-dione] had a DC50 of 1.5 nM and a Dmax of 78.5%.
On L858R/T790M/C797S EGFR, `Cc1cc2cc(n1)-c1cnn(C)c1OCCC[C@@H](C)CN1/C(=C/C2=O)Nc2ccc(CN3CCC(N4CCC(c5cc(F)c([C@H]6CCC(=O)NC6=O)c(F)c5)CC4)CC3)cc21` [Example 16, (R)-3-(2,6-difluoro-4-(1′-(((R,E)-1^1,2^6,7-trimethyl-3-oxo-5^2,5^3-dihydro-1^1H,5^1H-11-oxa-4-aza-5(2,1)-benzo[d]imidazola-2(2,4)-pyridina-1(4,5)-pyrazolacycloundecaphane-5^6-yl)methyl)-[1,4′-bipiperidin]-4-yl)phenyl)piperidine-2,6-dione] registered a DC50 of 10.6 nM and a Dmax of 82.1%.
As to `Cc1cc2cc(n1)-c1cnn(C)c1OCCC[C@@H](C)CN1/C(=N/C2=O)Nc2ccc(CN3CC4(CCN(CCc5cc(F)c([C@H]6CCC(=O)NC6=O)c(F)c5)CC4)C3)cc21` [Example 93, (R)-3-(2,6-difluoro-4-(2-(2-(((R,E)-1^1,2^6,7-trimethyl-3-oxo-5^2,5^3-dihydro-1^1H,5^1H-11-oxa-4-aza-5(2,1)-benzo[d]imidazola-2(2,4)-pyridina-1(4,5)-pyrazolacycloundecaphane-5^6-yl)methyl)-2,7-diazaspiro[3.5]nonan-7-yl)ethyl)phenyl)piperidine-2,6-dione], on L858R/T790M/C797S EGFR, it took 1.9 nM to reach half-maximal degradation (DC50) and the Dmax amounted to 92.7%.
The like results for `Cc1cc2cc(n1)-c1cnn(C)c1OCCC[C@@H](C)CN1/C(=N/C2=O)Nc2ccc(CN3CCN(CCc4cc(F)c([C@H]5CCC(=O)NC5=O)c(F)c4)[C@H](C)C3)cc21` [Example 107, (R)-3-(2,6-difluoro-4-(2-((R)-2-methyl-4-(((R,E)-1^1,2^6,7-trimethyl-3-oxo-5^2,5^3-dihydro-1^1H,5^1H-11-oxa-4-aza-5(2,1)-benzo[d]imidazola-2(2,4)-pyridina-1(4,5)-pyrazolacycloundecaphane-5^6-yl)methyl)piperazin-1-yl)ethyl)phenyl)piperidine-2,6-dione] were, in that order, 0.6 nM and 82.5%.
Consider `Cc1cc2cc(n1)-c1cnn(C)c1OCCC[C@@H](C)CN1/C(=N/C2=O)Nc2ccc(CN3CCC4(CC3)CCN(CC3CCN(c5ccc6c(c5)CN(C5CCC(=O)NC5=O)C6=O)CC3)CC4)cc21` (stereo partly drawn) [Example 21, 3-(1-oxo-5-(4-((9-(((R,E)-1^1,2^6,7-trimethyl-3-oxo-5^2,5^3-dihydro-1^1H,5^1H-11-oxa-4-aza-5(2,1)-benzo[d]imidazola-2(2,4)-pyridina-1(4,5)-pyrazolacycloundecaphane-5^6-yl)methyl)-3,9-diazaspiro[5.5]undecan-3-yl)methyl)piperidin-1-yl)isoindolin-2-yl)piperidine-2,6-dione], for which, on L858R/T790M/C797S EGFR, half-maximal degradation (DC50) was put at 2.7 nM and the Dmax is 77.8%.

One may read the DC50 as the concentration at which degradation of the target reaches its halfway point. For orientation: Dmax means the largest share of the target that was removed. Higher therefore signals deep degradation.
